Results reported in patent US20060142348A1, “Aryl sulfonamide peri-substituted bicyclics for occlusive artery disease” (deCODE Chemistry, Inc., priority 2004, published 2006).

molecular target: T1, prostanoid EP3 receptors (Homo sapiens, UniProt P43115); test: binding on prostanoid EP3 receptors (method of Abramovitz et al.); settings: read-out: Activity (EP3 receptor binding IC50)
T1 sequence (P43115 1-365 isoform P43115-3): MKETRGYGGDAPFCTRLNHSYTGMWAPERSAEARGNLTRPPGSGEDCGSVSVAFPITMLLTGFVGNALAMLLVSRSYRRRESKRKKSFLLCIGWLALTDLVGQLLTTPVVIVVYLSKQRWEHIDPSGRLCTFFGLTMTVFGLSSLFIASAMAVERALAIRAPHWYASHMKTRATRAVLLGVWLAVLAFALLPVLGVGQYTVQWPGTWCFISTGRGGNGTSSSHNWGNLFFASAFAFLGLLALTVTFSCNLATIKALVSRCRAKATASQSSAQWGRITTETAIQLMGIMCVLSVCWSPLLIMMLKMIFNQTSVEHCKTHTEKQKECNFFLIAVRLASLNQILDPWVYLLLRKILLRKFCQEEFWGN
Description: The compounds of the invention may be assayed for their binding on prostanoid EP3 receptors according to the method of Abramovitz et al. [Bioch. Biophys. Actas 1473, 285-293 (2000)]. All of the examples in the tables below have been synthesized, characterized and tested for EP3 receptor binding.
The compounds of the invention were assayed for their binding on prostanoid EP3 receptors according to the method of Abramovitz et al. [Bioch. Biophys. Acta, 1473, 285-293 (2000)]. […] Compounds with IC50<1 μM are shown as +++; compounds with IC50<1-10 μM are shown as ++; and compounds with IC50>10 μM are shown as +.

SMILES	IC50 [µM]
Cn1cc(Cc2ccc3ccccc3c2)c2c(-c3ccc(NS(=O)(=O)C(F)(F)F)cc3)cccc21 [Compound B08, C,C,C-Trifluoro-N-[4-(1-methyl-3-naphthalen-2-ylmethyl-1H-indol-4-yl)-phenyl]-methanesulfonamide]	1 to 10
Cn1cc(Cc2ccc3ccccc3c2)c2c(-c3cccc(NS(=O)(=O)c4cc(Cl)c(Cl)s4)c3)cccc21 [Compound B03, 4,5-Dichloro-thiophene-2-sulfonic acid[3-(1-methyl-3-naphthalen-2-ylmethyl-1H-indol-4-yl)-phenyl]-amide]	1 to 10
Cc1cn(Cc2ccc(F)c(F)c2)c2c(-c3ccc(NS(=O)(=O)C(F)(F)F)cc3)cc(F)cc12 [Compound B07, N-{4-[1-(3,4-Difluoro-benzyl)-5-fluoro-3-methyl-1H-indol-7-yl]-phenyl}-C,C,C-trifluoro-methanesulfonamide]	> 10
Cc1cn(Cc2ccc(Cl)cc2Cl)c2c(-c3ccc(NS(C)(=O)=O)cc3)cc(F)cc12 [Compound B09, N-{4-[1-(2,4-Dichloro-benzyl)-5-fluoro-3-methyl-1H-indol-7-yl]-phenyl}-methanesulfonamide]	> 10
Cn1cc(Cc2ccc3ccccc3c2)c2c(-c3cc(NS(=O)(=O)c4cc(Cl)c(Cl)s4)n[nH]3)cccc21 [Compound B01, 4,5-Dichloro-thiophene-2-sulfonic acid [5-(1-methyl-3-naphthalen-2-ylmethyl-1H-indol-4-yl)-1H-pyrazol-3-yl]-amide]	< 1
Cc1cn(Cc2ccc(Cl)cc2Cl)c2c(-c3nnc(NC(=O)C(F)(F)F)o3)cc(F)cc12 [Compound B10, N-{5-[1-(2,4-Dichloro-benzyl)-5-fluoro-3-methyl-1H-indol-7-yl]-[1,3,4]oxadiazol-2-yl}-2,2,2-trifluoro-acetamide]	1 to 10

Next, values leading:

IC50 [µM]	SMILES
< 1	Cc1cn(Cc2ccc(Cl)cc2Cl)c2c(-c3nnc(NC(=O)c4ccc(F)c(F)c4)o3)cc(F)cc12 [Compound B26, N-{5-[1-(2,4-Dichloro-benzyl)-5-fluoro-3-methyl-1H-indol-7-yl]-[1,3,4]oxadiazol-2-yl}-3,4-difluoro-benzamide]
1 to 10	Cc1cn(Cc2ccc(F)c(F)c2)c2c(-c3cc(NS(C)(=O)=O)n(C)n3)cc(F)cc12 [Compound B14, N-{5-[1-(3,4-Difluoro-benzyl)-5-fluoro-3-methyl-1H-indol-7-yl]-2-methyl-2H-pyrazol-3-yl}-methanesulfonamide]
1 to 10	Cc1cn(Cc2ccc(Cl)cc2Cl)c2c(-c3nnc(NC(=O)c4ccc(F)cc4)o3)cc(F)cc12 [Compound B23, N-{5-[1-(2,4-Dichloro-benzyl)-5-fluoro-3-methyl-1H-indol-7-yl]-[1,3,4]oxadiazol-2-yl}-4-fluoro-benzamide]
> 10	Cc1cn(Cc2ccc(Cl)cc2Cl)c2c(-c3nnc(NC(=O)c4cc(Cl)cc(Cl)c4)o3)cc(F)cc12 [Compound B25, 3,5-Dichloro-N-{5-[1-(2,4-dichloro-benzyl)-5-fluoro-3-methyl-1H-indol-7-yl]-[1,3,4]oxadiazol-2-yl}-benzamide]
< 1	Cc1cn(Cc2ccc(Cl)cc2Cl)c2c(-c3nnc(NS(=O)(=O)c4cc(Cl)c(Cl)s4)o3)cc(F)cc12 [Compound B13, 4,5-Dichloro-thiophene-2-sulfonic acid {5-[1-(2,4-dichloro-benzyl)-5-fluoro-3-methyl-1H-indol-7-yl]-[1,3,4]oxadiazol-2-yl}-amide]
1 to 10	CC(=O)Nc1ccc(-c2cccc3c2c(Cc2ccc4ccccc4c2)cn3C)cc1 [Compound B17, N-[4-(1-Methyl-3-naphthalen-2-ylmethyl-1H-indol-4-yl)-phenyl]-acetamide]
< 1	Cc1cn(Cc2ccc(Cl)cc2Cl)c2c(-c3nnc(NS(=O)(=O)c4ccc(Cl)c(Cl)c4)o3)cc(F)cc12 [Compound B20, 3,4-Dichloro-N-{5-[1-(2,4-dichloro-benzyl)-5-fluoro-3-methyl-1H-indol-7-yl]-[1,3,4]oxadiazol-2-yl}-benzenesulfonamide]
